Source: patent US11390604B2 (Hoffmann-La Roche Inc., priority 2019, dated 2022)
Counter-ions that a name gives are not always drawn.

What follows are compounds tested on Acinetobacter baumannii ATCC 17961 (assay: Antimicrobial susceptibility testing: 90% growth inhibitory concentration (IC90) determination). Conditions: ATCC17961, Acinetobacter baumannii ATCC 17961, Iso-Sensitest broth, read-out: ATCC 17961 IC90.
Assay type: cell-based
Outline: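 Growth was followed kinetically by OD600 at 20-min intervals for 16 h at 35±2 °C, with ~5×10^5 CFU/ml in Iso-Sensitest broth. Compounds were tested as twofold dilutions (e.g. 50–0.097 μM final). The concentration giving 90% inhibition of log-phase growth was reported.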
For `Cn1c(-c2cn(C3CC3(F)F)nc2C(F)(F)F)cnc1C(=O)Nc1ccc(C(=O)N2CC3C(N)C3C2)c(Cl)c1` (stereo not shown) [Example 212, N-(4-(6-amino-3-azabicyclo[3.1.0]hexane-3-carbonyl)-3-chlorophenyl)-5-(1-(2,2-difluorocyclopropyl)-3-(trifluoromethyl)-1H-pyrazol-4-yl)-1-methyl-1H-imidazole-2-carboxamide formate], the IC90 was 235 nM. `Cn1c(-c2cn(CC(F)F)nc2C(F)(F)F)cnc1C(=O)Nc1ccc(C(=O)N2CCN(C(=O)[C@H]3[C@@H]4CNC[C@@H]43)CC2)c(F)c1` [Example 213, rac-N-(4-(4-((1R,5S,6r)-3-azabicyclo[3.1.0]hexane-6-carbonyl)piperazine-1-carbonyl)-3-fluorophenyl)-5-(1-(2,2-difluoroethyl)-3-(trifluoromethyl)-1H-pyrazol-4-yl)-1-methyl-1H-imidazole-2-carboxamide] gave an IC90 of 240 nM. Compound `Cn1c(-c2cn(C3CC3)nc2C(F)(F)F)cnc1C(=O)Nc1ccc(C(=O)N2CCN(C(=O)NCC3CNC3)CC2)c(Cl)c1` [Example 214, N-(azetidin-3-ylmethyl)-4-(2-chloro-4-(5-(1-cyclopropyl-3-(trifluoromethyl)-1H-pyrazol-4-yl)-1-methyl-1H-imidazole-2-carboxamido)benzoyl)piperazine-1-carboxamide formate] has an IC90 of 241 nM. For `C=CCn1cc(-c2cnc(C(=O)Nc3ccc(C(=O)NC4C5CN(C(=O)C6CCNCC6)CC54)c(Cl)c3)n2C)c(C(F)(F)F)n1` (stereo not shown) [Example 215, 5-(1-allyl-3-(trifluoromethyl)-1H-pyrazol-4-yl)-N-(3-chloro-4-((3-(piperidine-4-carbonyl)-3-azabicyclo[3.1.0]hexan-6-yl)carbamoyl)phenyl)-1-methyl-1H-imidazole-2-carboxamide formate], the IC90 was 243 nM. Work on `Cn1c(-c2cn(C3CC3)nc2C(F)(F)F)cnc1C(=O)Nc1ccc(C(=O)N2CCN(C(=O)N3CC(N)C3)CC2)c(Cl)c1` [Example 216, N-(4-(4-(3-aminoazetidine-1-carbonyl)piperazine-1-carbonyl)-3-chlorophenyl)-5-(1-cyclopropyl-3-(trifluoromethyl)-1H-pyrazol-4-yl)-1-methyl-1H-imidazole-2-carboxamide formate] yielded an IC90 of 243 nM. With `Cn1c(-c2cn(C3CC3)nc2C(F)(F)F)cnc1C(=O)Nc1ccc(C(=O)N2CC[C@@H](CN)C2)c(Cl)c1` [Example 217, (S)-N-(4-(3-(aminomethyl)pyrrolidine-1-carbonyl)-3-chlorophenyl)-5-(1-cyclopropyl-3-(trifluoromethyl)-1H-pyrazol-4-yl)-1-methyl-1H-imidazole-2-carboxamide hydrochloride] the IC90 was 244 nM. `Cn1c(-c2cn(CC3CC3)nc2C(F)(F)F)cnc1C(=O)Nc1ccc(C(=O)N2CCN(C(=O)N[C@H]3C[C@@H](N)C3)CC2)c(F)c1` [Example 218, N-((1s,3s)-3-aminocyclobutyl)-4-(4-(5-(1-(cyclopropylmethyl)-3-(trifluoromethyl)-1H-pyrazol-4-yl)-1-methyl-1H-imidazole-2-carboxamido)-2-fluorobenzoyl)piperazine-1-carboxamide; hydrochloride] showed an IC90 of 244 nM. Work on `CCc1cc(NC(=O)c2ncc(-c3cn(CC(F)F)nc3C(F)(F)F)n2C)ccc1C(=O)NCCCCCNCC(=O)OC(C)(C)C` [Example 219, tert-butyl (5-(4-(5-(1-(2,2-difluoroethyl)-3-(trifluoromethyl)-1H-pyrazol-4-yl)-1-methyl-1H-imidazole-2-carboxamido)-2-ethylbenzamido)pentyl)glycinate] yielded an IC90 of 245 nM. `Cn1c(-c2cn(CC3CC3(F)F)nc2C(F)(F)F)cnc1C(=O)Nc1ccc(C(=O)NC2C3CN(C(=O)C4CCNCC4)CC32)c(Cl)c1` (stereo not shown) [Example 220, N-(3-chloro-4-((3-(piperidine-4-carbonyl)-3-azabicyclo[3.1.0]hexan-6-yl)carbamoyl)phenyl)-5-(1-((2,2-difluorocyclopropyl)methyl)-3-(trifluoromethyl)-1H-pyrazol-4-yl)-1-methyl-1H-imidazole-2-carboxamide formate] gave an IC90 of 245 nM. `Cn1c(-c2cn(C3CC3)nc2C(F)(F)F)cnc1C(=O)Nc1ccc(C(=O)NCCCCCN)c(Cl)c1` [Example 221, N-(4-((5-aminopentyl)carbamoyl)-3-chlorophenyl)-5-(1-cyclopropyl-3-(trifluoromethyl)-1H-pyrazol-4-yl)-1-methyl-1H-imidazole-2-carboxamide hydrochloride] showed an IC90 of 246 nM. For `C#CCn1cc(-c2cnc(C(=O)Nc3ccc(C(=O)NCCOCC(C)(C)N)c(CC)c3)n2C)c(C(F)(F)F)n1` [Example 222, N-[4-[2-(2-amino-2-methyl-propoxy)ethylcarbamoyl]-3-ethyl-phenyl]-1-methyl-5-[1-prop-2-ynyl-3-(trifluoromethyl)pyrazol-4-yl]imidazole-2-carboxamide; formic acid], the IC90 was 250 nM. In the case of `Cn1c(-c2cn(C3CC3)nc2C(F)(F)F)cnc1C(=O)Nc1ccc(C(=O)N2CCN(C(=O)[C@@H]3CCCNC3)CC2)c(Cl)c1` [Example 223, (R)-N-(3-chloro-4-(4-(piperidine-3-carbonyl)piperazine-1-carbonyl)phenyl)-5-(1-cyclopropyl-3-(trifluoromethyl)-1H-pyrazol-4-yl)-1-methyl-1H-imidazole-2-carboxamide hydrochloride], the IC90 is reported as 252 nM. With `Cn1c(-c2cn(C3CC3)nc2C(F)(F)F)cnc1C(=O)Nc1ccc(C(=O)N2CCN(C(=O)C3CNC3)CC2)c(Cl)c1` [Example 224, N-(4-(4-(azetidine-3-carbonyl)piperazine-1-carbonyl)-3-chlorophenyl)-5-(1-cyclopropyl-3-(trifluoromethyl)-1H-pyrazol-4-yl)-1-methyl-1H-imidazole-2-carboxamide hydrochloride] the IC90 was 256 nM. Work on `Cn1c(-c2cn(C3CC3)nc2C(F)(F)F)cnc1C(=O)Nc1ccc(C(=O)N2CCN(C(=O)N[C@H]3C[C@H](N)C3)CC2)c(Cl)c1` [Example 225, N-(3-aminocyclobutyl)-4-[2-chloro-4-[[5-[1-cyclopropyl-3-(trifluoromethyl)pyrazol-4-yl]-1-methylimidazole-2-carbonyl]amino]benzoyl]pipera-zine-1-carboxamide;formic acid] yielded an IC90 of 256 nM. Work on `Cn1c(-c2cn(CC3CC3)nc2C(F)(F)F)cnc1C(=O)Nc1ccc(C(=O)NC2C3CN(C(=O)C4CCNCC4)CC32)c(Cl)c1` (stereo not shown) [Example 227, N-(3-chloro-4-((3-(piperidine-4-carbonyl)-3-azabicyclo[3.1.0]hexan-6-yl)carbamoyl)phenyl)-5-(1-(cyclopropylmethyl)-3-(trifluoromethyl)-1H-pyrazol-4-yl)-1-methyl-1H-imidazole-2-carboxamide formate] yielded an IC90 of 262 nM. For `Cn1c(-c2cn(C3CC3)nc2C(F)(F)F)cnc1C(=O)Nc1ccc(C(=O)N2CCN(CCN)CC2)c(Cl)c1` [Example 228, N-(4-(4-(2-aminoethyl)piperazine-1-carbonyl)-3-chlorophenyl)-5-(1-cyclopropyl-3-(trifluoromethyl)-1H-pyrazol-4-yl)-1-methyl-1H-imidazole-2-carboxamide formate], the IC90 was 263 nM. `Cn1c(-c2cn(C3CC3)nc2C(F)(F)F)cnc1C(=O)Nc1ccc(C(=O)N2CCN(C(=O)[C@@H]3CCNC3)CC2)c(Cl)c1` [Example 229, (R)-N-(3-chloro-4-(4-(pyrrolidine-3-carbonyl)piperazine-1-carbonyl)phenyl)-5-(1-cyclopropyl-3-(trifluoromethyl)-1H-pyrazol-4-yl)-1-methyl-1H-imidazole-2-carboxamide hydrochloride] showed an IC90 of 263 nM. `Cn1c(-c2cn(C3CC3)nc2C(F)(F)F)cnc1C(=O)Nc1ccc(C(=O)N2CCN(C(=O)[C@@H]3CC[C@@H](N)C3)CC2)c(Cl)c1` [Example 230, N-(4-(4-((1R,3R)-3-aminocyclopentane-1-carbonyl)piperazine-1-carbonyl)-3-chlorophenyl)-5-(1-cyclopropyl-3-(trifluoromethyl)-1H-pyrazol-4-yl)-1-methyl-1H-imidazole-2-carboxamide hydrochloride] gave an IC90 of 266 nM. `Cn1c(-c2cn(C3CC3)nc2C(F)(F)F)cnc1C(=O)Nc1ccc(C(=O)N2CCN(C(=O)[C@H]3CC[C@H](N)CC3)CC2)c(Cl)c1` [Example 231, N-[4-[4-(4-aminocyclohexanecarbonyl)piper-azine-1-carbonyl]-3-chlorophenyl]-5-[1-cyclopropyl-3-(trifluoromethyl)pyrazol-4-yl]-1-methylimidazole-2-carboxamide;hydrochloride] showed an IC90 of 267 nM. For `Cn1c(-c2cn(C3CC3)nc2C(F)(F)F)cnc1C(=O)Nc1ccc(C(=O)N2CCN(C(=O)N[C@@H]3CC[C@@H](N)C3)CC2)c(Cl)c1` [Example 232, N-((1R,3R)-3-aminocyclopentyl)-4-(2-chloro-4-(5-(1-cyclopropyl-3-(trifluoromethyl)-1H-pyrazol-4-yl)-1-methyl-1H-imidazole-2-carboxamido)benzoyl)piperazine-1-carboxamide formate], the IC90 was 267 nM. `Cn1c(-c2cn(C3CC3)nc2C(F)(F)F)cnc1C(=O)Nc1ccc(C(=O)N2CCN(C(=O)NC3CNC3)CC2)c(Cl)c1` [Example 233, N-(azetidin-3-yl)-4-[2-chloro-4-[[5-[1-cyclopropyl-3-(trifluoromethyl)pyrazol-4-yl]-1-methyl-imidazole-2-carbonyl]amino]benzoyl]pipera-zine-1-carboxamide; formic acid] was tested, and the IC90 was 267 nM. `C=C(C)Cn1cc(-c2cnc(C(=O)Nc3ccc(C(=O)N[C@H]4C[C@@H](N)C4)c(Cl)c3)n2C)c(C(F)(F)F)n1` [Example 234, rac-N-(4-(((1s,3s)-3-aminocyclobutyl)carbamoyl)-3-chlorophenyl)-1-methyl-5-(1-(2-methylallyl)-3-(trifluoromethyl)-1H-pyrazol-4-yl)-1H-imidazole-2-carboxamide hydrochloride] was tested, and the IC90 was 268 nM.
